This is an account of results in paper PMC5380659, “Unique charge-dependent constraint on collagen recognition by integrin α10β1” (Matrix Biology, 2017).

Test [1] concerns C2C12-α10β1 cells. Put plainly: LDH-based SPBA of C2C12-α10β1 cell adhesion. Further details: species or system mouse. Conditions: short THPs, 2 mM Mg^2 +, 1 h, Fig. 4B. As for the experimental part:
The mouse myoblast cell line, C2C12-α10β1 clone, expresses α10β1 as its sole collagen-binding integrin [16]. To investigate the binding of α10β1 to collagen in a cellular and whole integrin context, therefore, the adhesion of C2C12-α10β1 cells to Toolkits II and III was performed using two different approaches. First, SPBA was used, with lactate dehydrogenase to report the presence of adherent cells, after lysis, as described in Experimental. […] C2C12-α10B1 cells generally bound more prominently to those weaker peptides that supported just-observable binding of free I-domain. This may reflect avidity of the receptor-populated cell surface for the peptide-coated wells, or perhaps up-regulation of integrin affinity following receptor engagement. It is also possible that some cell binding reflects specific indirect interactions. For example, fibronectin, available either by intrinsic expression or from the serum supplement, binds well to II-44, and can also bind integrin αVβ3 [21].
Fig. 2 Binding of α10β1-transfected C2C12 cells to Collagen Toolkits. 96-well plates were coated with peptides as for Fig. 1, then C2C12-α10β1 cells (5 × 10^4 per well) were added and incubated for 1 h in the presence of either 2 mM MgCl2 or 2 mM EDTA as above. A: binding to Toolkit II. B: binding to Toolkit III.
The mouse myoblast cell line, C2C12, (control and transfectants, C2C12-α1β1, C2C12-α2β1, C2C12-α10β1 or C2C12-α11β1) was maintained in RPMI medium containing 10% fetal bovine serum, 2 mM glutamine, 100 IU/ml penicillin, 100 μg/ml streptomycin, and 2.5 μg/ml amphotericin. Cells were harvested by centrifugation, washed, and suspended at 0.5 × 10^6/ml in Tris-buffered saline supplemented with 5.5 mM glucose and either 2 mM EDTA or 2 mM MgCl2. SPBA was performed as follows: 100 μl of the cell suspension was added to peptide-coated wells [42] at 20 °C for 60 min. Cell adhesion was determined colorimetrically after lysis, using a lactate dehydrogenase (LDH)-based cell detection kit (Roche Diagnostics) according to the supplier's instructions.

For test [2], the target named is T1, wild type α10 I domain (Homo sapiens, UniProt O75578).
T1 construct: Recombinant human α10 I domain-encoding plasmid (pGEX-2T-α10 I domain) was cloned using standard procedures; made in house; host or cells: bacteria (pGEX-2T plasmid; the Origami strain is stated only for α2 I domains)
T1 sequence (O75578 167-350 limits assumed): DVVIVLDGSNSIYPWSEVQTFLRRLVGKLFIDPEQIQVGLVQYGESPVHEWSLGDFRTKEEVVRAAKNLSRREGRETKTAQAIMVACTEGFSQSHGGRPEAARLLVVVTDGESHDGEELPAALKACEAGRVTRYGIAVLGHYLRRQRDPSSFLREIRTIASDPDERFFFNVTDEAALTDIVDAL
The experiment in a line: Concentration-dependent SPBA (KD) of wild-type α10 I domain. Conditions: SPBA concentration dependence; for KD, wild type α10 I domain: I domain up to 100 μg/ml, Fig. 9C and D; for Saturation / quality of binding, wild type α10 I domain: up to 100 μg/ml. Type of test: binding. As to the method: (§1) 96-well plates were prepared as for Fig. 1. A: binding to Toolkit II, B: binding to Toolkit III.
(§2) I domain adhesion was determined colorimetrically, as described, here termed solid phase binding assay (SPBA). Peptides were coated at 10 μg/ml for 1 h at 22 °C on Immulon-2 HB 96-well plates (Thermo Life Sciences, Basingstoke, UK), and blocked for 1 h with 200 μl of TBS containing 50 mg/ml bovine serum albumin. […] Wells were washed five times with 200 μl of adhesion buffer containing MgCl2 or EDTA, before adding 100 μl of adhesion buffer containing the anti-GST-HRP conjugate at 1:10,000 dilution for 1 h at room temperature. After washing, colour was developed using an ImmunoPure TMB Substrate Kit (Pierce) according to the manufacturer's instructions.

The target of test [3] is T2, R215Q α10 I domain (Homo sapiens, UniProt O75578, R237Q).
T2 construct: made in house; host or cells: bacteria
T2 sequence (O75578 167-350 R237Q): T1 sequence (O75578 167-350 limits assumed) with R71Q
Put plainly: Concentration-dependent SPBA (KD) of α10-R215Q I domain. It is filed as binding. As to conditions: SPBA concentration dependence; for KD, R215Q α10 I domain: I domain up to 100 μg/ml, Fig. 9C and D; for Saturation / quality of binding, R215Q α10 I domain: up to 100 μg/ml. As for the experimental part:
as §1, §2

Test [4] deals with α2β1. Further details: method as in 4 sources, ref [8], [10] = [8]; PMID 16326707; doi:10.1074/jbc.M509818200; 8 Raynal N. Hamaia S.W. Siljander P.R. Maddox B. Peachey A.R. Fernandez R. Foley L.J. Slatter D.A. Jarvis G.E. Farndale R.W. Use of synthetic peptides to locate novel integrin alpha2beta1-binding moti || [10]; PMID 16043429; doi:10.1074/jbc.M502431200; 10 Kim J.K. Xu Y. Xu X. Keene D.R. Gurusiddappa S. Liang X. Wary K.K. Hook M. A novel binding site in collagen type III for the integrins, alpha 1beta 1 and alpha 2beta 1 J. Biol. Chem. 280 2005 32512 ||| ref not given ||| ref [4] = [4]; PMID 19693543; doi:10.1007/s00441-009-0834-6; 4 Barczyk M. Carracedo S. Gullberg D. Integrins Cell Tissue Res. 339 1 2010 269 280 19693543 10.1007/s00441-009-0834-6 PMC2784866 ||| ref [12] = [12]; PMID 22654115; doi:10.1074/jbc.M112.353144; 12 Hamaia S.W. Pugh N. Raynal N. Nemoz B. Stone R. Gullberg D. Bihan D. Farndale R.W. Mapping of potent and specific binding motifs, GLOGEN and GVOGEA, for integrin alpha1beta1 using collagen toolkits. As to conditions: cited from earlier work; for Binding to integrin α2β1, previously described: ref not given.

Where a chain is given by its changes, count along the chain named. Entries after “also recorded” stand apart in the source; their conditions may differ.

As for “GROGER [short triple-helical peptide containing GROGER]”, the “Adhesion of C2C12-α10β1 cells to short triple-helical peptides” value (shortened to “Adhesion of C2C12-α10β1 cells”) in test [1] is “absence of binding”. In test [2], the “KD, wild type α10 I domain” value was above 100 µg/mL and the “Saturation / quality of binding, wild type α10 I domain” value is on record as “bound poorly”. Besides, in test [3], the “KD, R215Q α10 I domain” value was “about 50 μg/ml” and the “Saturation / quality of binding, R215Q α10 I domain” value is recorded as “enhanced binding; also recorded: bound quite well”. Moreover, in test [4], the “Binding to integrin α2β1, previously described” value (“Binding to integrin α2β1” for short) is on record as “good binding motifs”. The “Binding to α2β1” value in test [4] (ref [8], [10]) is recorded as “relatively good α2β1-binding motif”.
For GLOGEN [short THP containing GLOGEN], in test [1], the “Adhesion of C2C12-α10β1 cells” value was “bound strongly”. For the same substance, in test [2], the “KD, wild type α10 I domain” value is around 10 µg/mL and the “Saturation / quality of binding, wild type α10 I domain” value is on record as “saturation binding”. In test [3], the “KD, R215Q α10 I domain” value is around 10 µg/mL and the “Saturation / quality of binding, R215Q α10 I domain” value is reported as “enhanced binding of R215Q to GROGER but not GLOGEN; also recorded: saturation binding”. Further, the “Binding to integrin α2β1” value in test [4] is on record as “good binding motifs”.
As to “GFOGER [THP containing GFOGER served as positive control, reference compound]”, the “Adhesion of C2C12-α10β1 cells” value in test [1] was “less well”. The “Saturation / quality of binding, wild type α10 I domain” value in test [2] is reported as “did not saturate at up to 100 μg/ml; also recorded: good ligand”. In addition, the “Saturation / quality of binding, R215Q α10 I domain” value in test [3] is listed as “did not saturate at up to 100 μg/ml; also recorded: good ligand”. Further, in test [4], the “Binding to integrin α2β1” value is listed as “good binding motifs”.
